Reference: patent US8410112B2, “Compounds useful as inhibitors of ATR kinase” (Vertex Pharmaceuticals Incorporated, priority 2008, dated 2013)

biological target: T1, full-length ATR (Homo sapiens, UniProt Q13535); assay: ATR Inhibition Assay (radioactive-phosphate incorporation); type: biochemical; details: Ki(app); 5 nM full-length ATR, 10 μM ATP, 800 μM target peptide, 25° C.
T1 construct: in the presence of 5 nM full-length ATR
In short: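 After a 10-min pre-incubation of compound with 5 nM enzyme at 25 °C, ATP was added to start the reaction (final 10 μM [γ-33P]ATP, 800 μM peptide; Tris/HCl pH 7.5, MgCl2, DTT), which ran 24 h. Incorporated 33P was captured on phosphocellulose filters, and Ki(app) was fitted by non-linear regression.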

T1 sequence (Q13535 whole entry): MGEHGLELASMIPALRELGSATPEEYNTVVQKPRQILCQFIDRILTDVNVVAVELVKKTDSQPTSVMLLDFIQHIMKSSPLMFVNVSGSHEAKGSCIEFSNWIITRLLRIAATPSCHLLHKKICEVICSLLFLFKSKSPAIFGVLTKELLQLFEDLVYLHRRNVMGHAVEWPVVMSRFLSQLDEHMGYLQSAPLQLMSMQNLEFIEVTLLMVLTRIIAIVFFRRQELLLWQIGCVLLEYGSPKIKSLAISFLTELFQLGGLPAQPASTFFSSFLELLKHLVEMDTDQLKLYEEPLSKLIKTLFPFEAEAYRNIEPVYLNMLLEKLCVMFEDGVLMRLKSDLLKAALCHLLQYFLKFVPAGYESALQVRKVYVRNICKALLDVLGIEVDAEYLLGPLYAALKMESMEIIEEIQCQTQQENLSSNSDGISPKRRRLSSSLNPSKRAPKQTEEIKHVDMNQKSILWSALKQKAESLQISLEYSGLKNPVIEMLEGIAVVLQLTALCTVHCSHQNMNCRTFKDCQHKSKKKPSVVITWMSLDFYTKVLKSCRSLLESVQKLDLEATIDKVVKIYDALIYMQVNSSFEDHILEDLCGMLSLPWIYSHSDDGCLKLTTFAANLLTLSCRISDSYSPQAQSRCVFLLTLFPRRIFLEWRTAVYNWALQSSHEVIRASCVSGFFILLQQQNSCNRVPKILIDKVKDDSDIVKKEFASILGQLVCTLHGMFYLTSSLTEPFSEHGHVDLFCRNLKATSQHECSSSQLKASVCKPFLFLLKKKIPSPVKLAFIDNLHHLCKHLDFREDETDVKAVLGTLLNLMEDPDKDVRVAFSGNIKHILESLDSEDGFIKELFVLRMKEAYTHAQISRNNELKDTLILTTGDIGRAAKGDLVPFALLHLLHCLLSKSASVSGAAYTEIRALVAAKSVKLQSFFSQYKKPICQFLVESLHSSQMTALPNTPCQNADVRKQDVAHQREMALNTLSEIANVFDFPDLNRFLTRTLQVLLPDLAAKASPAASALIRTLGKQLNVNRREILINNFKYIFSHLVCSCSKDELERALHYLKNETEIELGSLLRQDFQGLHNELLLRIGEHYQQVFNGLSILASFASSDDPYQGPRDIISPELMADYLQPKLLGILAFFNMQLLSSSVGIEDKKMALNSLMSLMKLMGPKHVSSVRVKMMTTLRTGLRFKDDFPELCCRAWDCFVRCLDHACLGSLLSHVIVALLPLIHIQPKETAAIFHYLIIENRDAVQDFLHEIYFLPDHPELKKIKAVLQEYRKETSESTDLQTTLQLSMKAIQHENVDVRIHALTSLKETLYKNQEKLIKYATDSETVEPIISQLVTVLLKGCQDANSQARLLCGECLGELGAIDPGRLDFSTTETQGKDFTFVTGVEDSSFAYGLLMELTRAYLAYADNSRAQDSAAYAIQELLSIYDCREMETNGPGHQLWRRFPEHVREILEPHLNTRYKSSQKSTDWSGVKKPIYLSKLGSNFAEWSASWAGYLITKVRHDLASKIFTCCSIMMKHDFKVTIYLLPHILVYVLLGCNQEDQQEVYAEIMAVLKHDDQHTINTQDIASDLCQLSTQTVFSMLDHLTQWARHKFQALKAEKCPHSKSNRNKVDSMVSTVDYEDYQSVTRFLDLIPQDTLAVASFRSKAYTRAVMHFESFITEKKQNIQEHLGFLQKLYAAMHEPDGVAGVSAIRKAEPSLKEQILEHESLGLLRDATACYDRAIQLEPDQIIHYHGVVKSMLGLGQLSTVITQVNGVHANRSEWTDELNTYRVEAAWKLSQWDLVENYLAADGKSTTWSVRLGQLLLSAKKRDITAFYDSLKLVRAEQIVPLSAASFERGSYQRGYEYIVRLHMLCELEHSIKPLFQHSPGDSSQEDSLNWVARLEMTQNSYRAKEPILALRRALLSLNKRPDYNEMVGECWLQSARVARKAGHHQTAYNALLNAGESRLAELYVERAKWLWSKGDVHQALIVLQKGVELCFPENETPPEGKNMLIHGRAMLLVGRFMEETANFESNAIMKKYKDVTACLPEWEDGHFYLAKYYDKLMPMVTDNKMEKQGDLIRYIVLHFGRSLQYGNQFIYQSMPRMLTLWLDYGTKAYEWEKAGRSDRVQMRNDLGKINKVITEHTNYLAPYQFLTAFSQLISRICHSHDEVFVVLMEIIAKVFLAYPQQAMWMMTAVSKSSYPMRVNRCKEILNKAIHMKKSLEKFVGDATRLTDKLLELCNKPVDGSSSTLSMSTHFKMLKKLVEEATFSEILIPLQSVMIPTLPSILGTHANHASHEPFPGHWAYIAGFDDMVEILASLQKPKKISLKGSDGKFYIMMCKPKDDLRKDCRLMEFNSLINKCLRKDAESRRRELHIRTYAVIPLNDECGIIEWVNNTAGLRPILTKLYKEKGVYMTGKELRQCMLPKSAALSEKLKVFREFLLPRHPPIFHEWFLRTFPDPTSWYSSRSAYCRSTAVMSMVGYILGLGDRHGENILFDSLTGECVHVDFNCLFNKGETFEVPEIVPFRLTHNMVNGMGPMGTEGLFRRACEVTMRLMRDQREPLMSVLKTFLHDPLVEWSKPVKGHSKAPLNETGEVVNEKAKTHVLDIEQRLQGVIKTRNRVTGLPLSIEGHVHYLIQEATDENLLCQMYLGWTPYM

Row | Ki [nM] | SMILES
1 | 1000 to 10000 | COCCOCC(=O)N1CCN(c2cnc(N)c(-c3nc4ccccc4[nH]3)n2)CC1 [Compound I-264, 1-(4-(5-amino-6-(1H-benzo[d]imidazol-2-yl)pyrazin-2-yl)piperazin-1-yl)-2-(2-methoxyethoxy)ethanone]
2 | 100 to 1000 | CCS(=O)(=O)N1CC=C(c2cnc(N)c(-c3nnc(-c4ccc(CNC)cc4)o3)n2)CC1 [Compound I-339, 5-(1-Ethylsulfonyl-3,6-dihydro-2H-pyridin-4-yl)-3-[5-[4-(methylaminomethyl)phenyl]-1,3,4-oxadiazol-2-yl]pyrazin-2-amine]
3 | < 100 | CCC(=O)NC1CC=C(c2cnc(N)c(-c3nnc(-c4ccc(CNC)cc4)o3)n2)CC1 (stereo not drawn) [Compound I-367, N-(4-(5-Amino-6-(5-(4-((methylamino)methyl)phenyl)-1,3,4-oxadiazol-2-yl)pyrazin-2-yl)cyclohex-3-enyl)propionamide]
4 | 100 to 1000 | CCC(=O)N1C[C@@H]2C[C@@H]1CN2c1cnc(N)c(-c2nnc(-c3ccc(CNC)cc3)o2)n1 [Compound I-334, 1-[(1S,4R)-2-[5-Amino-6-[5-[4-(methylaminomethyl)phenyl]-1,3,4-oxadiazol-2-yl]pyrazin-2-yl]-2,5-diazabicyclo[2.2.1]heptan-5-yl]propan-1-one]
5 | 1000 to 10000 | CCS(=O)(=O)N1CC2CN(c3cnc(N)c(-c4nc5ccccc5[nH]4)n3)CC2C1 (stereo not drawn) [Compound I-295, 3-(1H-benzimidazol-2-yl)-5-(2-ethylsulfonyl-1,3,3a,4,6,6a-hexahydropyrrolo[3,4-c]pyrrol-5-yl)pyrazin-2-amine]
6 | 1000 to 10000 | Nc1ncc(N2CCN(C(=O)N3CCCCC3)CC2)nc1-c1nc2ccccc2[nH]1 [Compound I-270, (4-(5-amino-6-(1H-benzo[d]imidazol-2-yl)pyrazin-2-yl)piperazin-1-yl)(piperidin-1-yl)methanone]
7 | 100 to 1000 | CCN1CCN(c2cnc(N)c(-c3nnc(-c4ccc(CNC)cc4)o3)n2)CC1 [Compound I-322, 5-(4-Ethylpiperazin-1-yl)-3-[5-[4-(methylaminomethyl)phenyl]-1,3,4-oxadiazol-2-yl]pyrazin-2-amine]
8 | 100 to 1000 | CNCc1ccc(-c2nnc(-c3nc(C4=CCC(C)CC4)cnc3N)o2)cc1 (stereo not drawn) [Compound I-336, 3-(5-(4-((Methylamino)methyl)phenyl)-1,3,4-oxadiazol-2-yl)-5-(4-methylcyclohex-1-enyl)pyrazin-2-amine]
9 | 100 to 1000 | CCS(=O)(=O)N1CCN(c2cnc(N)c(-c3nnc(-c4cccs4)o3)n2)CC1 [Compound I-312, 5-(4-ethylsulfonylpiperazin-1-yl)-3-[5-(2-thienyl)-1,3,4-oxadiazol-2-yl]pyrazin-2-amine]
10 | 1000 to 10000 | CC(=O)NC1CN(c2cnc(N)c(-c3nnc(-c4ccccc4)o3)n2)C1 [Compound I-282, N-(1-(5-amino-6-(5-phenyl-1,3,4-oxadiazol-2-yl)pyrazin-2-yl)azetidin-3-yl)ethanamide]
11 | 1000 to 10000 | CNCc1ccc(-c2nnc(-c3nc(N4Cc5ccccc5C4)cnc3N)o2)cc1 [Compound I-321, 5-Isoindolin-2-yl-3-[5-[4-(methylaminomethyl)phenyl]-1,3,4-oxadiazol-2-yl]pyrazin-2-amine]
12 | < 100 | Cc1cccc(C)c1C(=O)N1CC=C(c2cnc(N)c(-c3nc4ccccc4[nH]3)n2)CC1 [Compound I-263, (4-(5-amino-6-(1H-benzo[d]imidazol-2-yl)pyrazin-2-yl)-5,6-dihydropyridin-1(2H)-yl)(2,6-dimethylphenyl)methanone]
13 | 100 to 1000 | Nc1ncc(N2CCN(c3nccs3)CC2)nc1-c1nc2ccccc2[nH]1 [Compound I-277]
14 | 1000 to 10000 | Nc1ncc(N2CCC3(CCNC3)C2)nc1-c1nnc(-c2ccccc2)o1 (stereo not drawn) [Compound I-340, 3-(5-Phenyl-1,3,4-oxadiazol-2-yl)-5-(2,7-diazaspiro[4.4]nonan-2-yl)pyrazin-2-amine]
15 | 100 to 1000 | CC#CCOC(=O)N1CCN(c2cnc(N)c(-c3nnc(-c4ccccc4)o3)n2)CC1 [Compound I-246, but-2-ynyl 4-(5-amino-6-(5-phenyl-1,3,4-oxadiazol-2-yl)pyrazin-2-yl)piperazine-1-carboxylate]

More lines, now with the values behind:

Row | SMILES | Ki [nM]
16 | Cn1cnc(S(=O)(=O)N2CCN(c3cnc(N)c(-c4nc5ccccc5[nH]4)n3)CC2)c1 [Compound I-91, 3-(1H-benzo[d]imidazol-2-yl)-5-(4-(1-methyl-1H-imidazol-4-ylsulfonyl)piperazin-1-yl)pyrazin-2-amine] | 100 to 1000
17 | CS(=O)(=O)N1CCN(c2cnc(N)c(-c3nc4ccccc4[nH]3)n2)CC1 [Compound I-86, 3-(1H-benzo[d]imidazol-2-yl)-5-(4-(methylsulfonyl)piperazin-1-yl)pyrazin-2-amine] | 100 to 1000
18 | Cc1ccc2nc(-c3nc(C4=CCC5(CC4)OCCO5)cnc3N)[nH]c2c1 [Compound I-22, 3-(6-methyl-1H-benzo[d]imidazol-2-yl)-5-(1,4-dioxaspiro[4.5]dec-7-en-8-yl)pyrazin-2-amine] | 100 to 1000
19 | Nc1ncc(N2CCN(C(=O)c3ccccn3)CC2)nc1-c1nnc(-c2ccccc2)o1 [Compound I-187, (4-(5-amino-6-(5-phenyl-1,3,4-oxadiazol-2-yl)pyrazin-2-yl)piperazin-1-yl)(pyridin-2-yl)methanone] | 100 to 1000
20 | CN1CCC(C(=O)N2CC=C(c3cnc(N)c(-c4nc5ccccc5[nH]4)n3)CC2)CC1 [Compound I-78, (4-(5-amino-6-(1H-benzo[d]imidazol-2-yl)pyrazin-2-yl)-5,6-dihydropyridin-1(2H)-yl)(1-methylpiperidin-4-yl)methanone] | 100 to 1000
21 | Nc1ncc(N2CCN(C(=O)C3CCC3)CC2)nc1-c1nnc(-c2ccccc2)o1 [Compound I-189, (4-(5-amino-6-(5-phenyl-1,3,4-oxadiazol-2-yl)pyrazin-2-yl)piperazin-1-yl)(cyclobutyl)methanone] | 100 to 1000
22 | CC(C)C(=O)N1CCN(c2cnc(N)c(C(=O)Nc3ccccn3)n2)CC1 [Compound I-68, 3-amino-6-(4-(2-methylpropanoyl)piperazin-1-yl)-N-(pyridin-2-yl)pyrazine-2-carboxamide] | 100 to 1000
23 | CCC(CC)C(=O)N1CCN(c2cnc(N)c(C(=O)Nc3ccccn3)n2)CC1 [Compound I-212, 3-amino-6-(4-(2-ethylbutanoyl)piperazin-1-yl)-N-(pyridin-2-yl)pyrazine-2-carboxamide] | 1000 to 10000
24 | CCS(=O)(=O)N1CCN(c2cnc(N)c(-c3noc(C)n3)n2)CC1 [Compound I-38, 5-(4-(ethylsulfonyl)piperazin-1-yl)-3-(5-methyl-1,2,4-oxadiazol-3-yl)pyrazin-2-amine] | 1000 to 10000
25 | Nc1ncc(N2CCN(S(=O)(=O)C3CC3)CC2)nc1C(=O)Nc1ccccn1 [Compound I-118, 3-amino-6-(4-(cyclopropylsulfonyl)piperazin-1-yl)-N-(pyridin-2-yl)pyrazine-2-carboxamide] | 100 to 1000
26 | Nc1ncc(C2=CCNCC2)nc1-c1nnc(-c2ccccc2)o1 [Compound I-41, 3-(5-phenyl-1,3,4-oxadiazol-2-yl)-5-(1,2,3,6-tetrahydropyridin-4-yl)pyrazin-2-amine] | 100 to 1000
27 | Cn1cnc(S(=O)(=O)N2CC=C(c3cnc(N)c(-c4nc5ccccc5[nH]4)n3)CC2)c1 [Compound I-94, 3-(1H-benzo[d]imidazol-2-yl)-5-(1-(1-methyl-1H-imidazol-4-ylsulfonyl)-1,2,3,6-tetrahydropyridin-4-yl)pyrazin-2-amine] | < 100
28 | COCCOC(=O)N1CCN(c2cnc(N)c(-c3nnc(-c4ccccc4)o3)n2)CC1 [Compound I-221, 2-methoxyethyl 4-(5-amino-6-(5-phenyl-1,3,4-oxadiazol-2-yl)pyrazin-2-yl)piperazine-1-carboxylate] | 100 to 1000
29 | Nc1ncc(C2=CCN(S(=O)(=O)c3cccs3)CC2)nc1-c1nc2ccccc2[nH]1 [Compound I-79, 3-(1H-benzo[d]imidazol-2-yl)-5-(1-(thiophen-2-ylsulfonyl)-1,2,3,6-tetrahydropyridin-4-yl)pyrazin-2-amine] | < 100
30 | Nc1ncc(N2CCN(S(=O)(=O)c3c(F)cccc3F)CC2)nc1-c1nnc(-c2ccccc2)o1 [Compound I-202, 5-(4-(2,6-difluorophenylsulfonyl)piperazin-1-yl)-3-(5-phenyl-1,3,4-oxadiazol-2-yl)pyrazin-2-amine] | 100 to 1000
31 | Cc1ccc2nc(-c3nc(N4CCC(=O)CC4)cnc3N)[nH]c2c1 [Compound I-11, 1-(5-amino-6-(6-methyl-1H-benzo[d]imidazol-2-yl)pyrazin-2-yl)piperidin-4-one] | 1000 to 10000
32 | Nc1ncc(N2CCN(S(=O)(=O)c3ccsc3)CC2)nc1C(=O)Nc1ccccn1 [Compound I-117, 3-amino-N-(pyridin-2-yl)-6-(4-(thiophen-3-ylsulfonyl)piperazin-1-yl)pyrazine-2-carboxamide] | 100 to 1000
33 | COCCOCC(=O)N1CC=C(c2cnc(N)c(-c3nc4ccccc4[nH]3)n2)CC1 [Compound I-140, 1-(4-(5-amino-6-(1H-benzo[d]imidazol-2-yl)pyrazin-2-yl)-5,6-dihydropyridin-1(2H)-yl)-2-(2-methoxyethoxy)ethanone] | 100 to 1000
34 | Nc1ncc(N2CCN(C(=O)COc3ccccc3)CC2)nc1C(=O)Nc1ccccn1 [Compound I-143, 3-amino-6-(4-(2-phenoxyethanoyl)piperazin-1-yl)-N-(pyridin-2-yl)pyrazine-2-carboxamide] | 1000 to 10000
35 | Nc1ncc(C2=CCN(C(=O)C3CCOCC3)CC2)nc1-c1nc2ccccc2[nH]1 [Compound I-235, (4-(5-amino-6-(1H-benzo[d]imidazol-2-yl)pyrazin-2-yl)-5,6-dihydropyridin-1(2H)-yl)(tetrahydro-2H-pyran-4-yl)methanone] | 100 to 1000
36 | CCS(=O)(=O)N1CCN(c2cnc(N)c(-c3cn4ccsc4n3)n2)CC1 [Compound I-62, 5-(4-(ethylsulfonyl)piperazin-1-yl)-3-(imidazo[2,1-b]thiazol-6-yl)pyrazin-2-amine] | 1000 to 10000
